According to US5502060A, “HIV protease inhibitors” (Merck & Co., Inc., priority 1994, dated 1996):

What follows are compounds tested against HIV protease (Human immunodeficiency virus type 1 group M subtype B, UniProt P03366) (assay: biochemical). Conditions: protease expressed in Escherichia coli; peptide substrate Val-Ser-Gln-Asn-(betanapthyl)Ala-Pro-Ile-Val; 50 mM Na acetate, pH 5.5, 30° C., 1 hour; HPLC.
Protocol: Assay for Inhibition of Microbial Expressed Viral Protease
Inhibition studies of the reaction of the protease expressed in Escherichia coli with a peptide substrate Val-Ser-Gln-Asn-(betanapthyl)Ala-Pro-Ile-Val, 0.5 mg/mL at the time the reaction is initiated! were in 50 mM Na acetate, pH 5.5, at 30° C. for 1 hour. Various concentrations of inhibitor in 1.0 ul DMSO were added to 25 ul of the peptide solution in water. The reaction is initiated by the addition of 15 ul of 0.33 nM protease (0.11 ng) in a solution of 0.133 M Na acetate pH 5.5 and 0.26% bovine serum albumin. The reaction was quenched with 160 ul of 5% phosphoric acid. Products of the reaction were separated by HPLC (VYDAC wide pore 5 cm C-18reverse phase, acetonitrile gradient, 0.1% phosphoric acid). The extent of inhibition of the reaction was determined from the peak heights of the products.

| Compound | IC50 [nM] |
| --- | --- |
| CC(C)(C)NC(=O)[C@@H]1C[C@@H]2CCCC[C@@H]2CN1C[C@@H](O)[C@H](Cc1ccccc1)NC(=O)O[C@H]1CCS(=O)(=O)C1 [B, Cis-N-tert-butyl-decahydro-2 2(R)-hydroxy-4-phenyl-3(S)-3(S)-1,1-dioxotetr ahydrothien-3-yloxycarbonylamino !-butyl!-(4aS, 8aS )-isoquinoline-3(S)-carboxamide hydrate] | ~59 |
| CC(C)(C)NC(=O)[C@@H]1C[C@@H]2CCCC[C@@H]2CN1C[C@@H](O)[C@H](Cc1ccccc1)NC(=O)O[C@H]1CCOC1 [Compound A, cis-N-tert-butyl-decahydro-2 2(R)hydroxy-4-phenyl-3(S)-3(S)-tetrahydrofuranyloxycarbonylamino !-butyl!-(4aS, 8aS )-isoquinoline-3(S)carboxamide] | ~260 |
| CC(C)[C@@H]1[C@H](OC(=O)N[C@@H](Cc2ccccc2)[C@H](O)CN2C[C@H]3CCCC[C@H]3C[C@H]2C(=O)NC(C)(C)C)CCS1(=O)=O [Compound C, N-tert-butyl-decahydro-2 2(R)-hydroxy-4-phenyl-3(S)-1,1-dioxo-2(R)-methylethyl-3(R)-tetrahydrothienyloxycarbonylamino!butyl!-(4aS, 8aS) isoquinoline-3(S)-carboxamide] | ~4 |
